{"source": "patent US7655392B2", "about": "“Quenching methods for red blood cell inactivation process” (priority 2004, dated 2010)", "tested_on": "red blood cells", "test": "Gel card agglutination with rabbit anti-acridine sera", "type": "cell-based", "method": "The reduction in modification of red blood cells in the methods of the present invention can be evaluated by several assays. In one assay, rabbit polyclonal sera that is reactive with acridine is produced by injecting New Zealand White rabbits with an acridine compound conjugated to KLH.\nThis is conjugated to KLH by adding 10 μL of the compound (10 mM in de-ionized water) to 990 μL of a buffered solution of KLH (10 mg/mL in 50 mM Phosphate, 150 mM NaCl, PBS pH=7.2 with proprietary stabilizer, Pierce Cat # 77600) and incubating at room temperature for over 20 hours. Following this incubaton, the conjugated KLH is isolated from the unreacted S-197 and S-197 by-products by passing through a desalting column (e.g. D-salt columns, Pierce) and eluting in PBS buffer. The colored fractions of the solutions are then combined and the KLH conjugates are characterized by the ratio of absorbance at 210 and 410 nm. The acridine-KLH conjugate solutions are mixed with Complete Freund's Adjuvant for intramuscular injection into the rabbits at multiple sites to immunize the rabbits. […] The resulting solution can be assayed for agglutination by passing through a Buffer Gel Card (Micro Typing Systems, Pompano Beach, Fla.). The gel cards are designed to allow non-agglutinated red blood cells to pass through, while cells agglutinated by reaction with the rabbit sera and cross reacting with the anti-rabbit antibody will remain at the top of the gel. The cards are scored as 0, 1+, 2+, 3+, or 4+, where 0 indicates all cells are intact and are at the bottom of the gel, while 4+ indicates complete agglutination, with all cells at the top of the gel.\nIn these, the appropriate amount of 600 mM stock was added, mixed with an appropriate volume of 8% dextrose to provide the same volume addition to each RBC sample where in one study, with varied glutathione concentrations, the pH was measured after adding glutathione and after adding PIC-1. […] Similar samples were also assessed for the inactivation of S. epidermidis. […] For gel card analysis, after incubation, the RBC were washed in BBS and were diluted in BBS to a final hematocrit of 4%. A 25 μL aliquot of each was mixed with 15 μL of rabbit polyclonal anti-acridine sera diluted either 1:4 or 1:100 in BBS and the mixture was incubated at 37° C. for 30 minutes. The cells were subsequently washed with 1.5 mL BBS. […]\nHeterophile antibodies are naturally occurring antibodies that recognize RBC from another species in a non-specific fashion. […] All samples were mixed with quencher first, then PIC-1 at 0.2 mM.\nThe standard condition was included, i.e. 0.2 mM PIC-1 and 2 mM acidic glutathione added together.", "data": [{"smiles": "O=C(CCNc1c2ccccc2nc2ccccc12)OCCN(CCCl)CCCl", "note": "[PIC-1]", "values": [{"measurement": "Gel card score", "setting": "Table 13: 5 mM GSH 2eq/15 mM Cys 1eq, 0.2 mM PIC-1, blood sample 1, sera 1:100", "result": 0}, {"measurement": "Gel card score", "setting": "Table 13: 5 mM GSH 2eq/15 mM Cys 1eq, 0.2 mM PIC-1, blood sample 2, sera 1:4", "result": 3}, {"measurement": "Gel card score", "setting": "Table 13: 5 mM GSH 2eq/15 mM Cys 1eq, 0.2 mM PIC-1, blood sample 2, sera 1:100", "result": 0}, {"measurement": "Gel card score", "setting": "Table 13: 5 mM GSH 2eq/15 mM Cys 2eq, 0.2 mM PIC-1, blood sample 1, sera 1:4", "result": 1}, {"measurement": "Gel card score", "setting": "Table 13: 5 mM GSH 2eq/15 mM Cys 2eq, 0.2 mM PIC-1, blood sample 1, sera 1:100", "result": 0}, {"measurement": "Gel card score", "setting": "Table 13: 5 mM GSH 2eq/15 mM Cys 2eq, 0.2 mM PIC-1, blood sample 2, sera 1:4", "result": 1}, {"measurement": "Gel card score", "setting": "Table 13: 5 mM GSH 2eq/15 mM Cys 2eq, 0.2 mM PIC-1, blood sample 2, sera 1:100", "result": 0}, {"measurement": "Gel card score", "setting": "Table 13: 10 mM GSH 2eq/10 mM Cys 1eq, 0.2 mM PIC-1, blood sample 1, sera 1:4", "result": 3}, {"measurement": "Gel card score", "setting": "Table 13: 10 mM GSH 2eq/10 mM Cys 1eq, 0.2 mM PIC-1, blood sample 1, sera 1:100", "result": 0}, {"measurement": "Gel card score", "setting": "Table 13: 10 mM GSH 2eq/10 mM Cys 1eq, 0.2 mM PIC-1, blood sample 2, sera 1:4", "result": 3}, {"measurement": "Gel card score", "setting": "Table 13: 10 mM GSH 2eq/10 mM Cys 1eq, 0.2 mM PIC-1, blood sample 2, sera 1:100", "result": 0}, {"measurement": "Gel card score", "setting": "Table 13: 10 mM GSH 2eq/10 mM Cys 2eq, 0.2 mM PIC-1, blood sample 1, sera 1:4", "result": 2}, {"measurement": "Gel card score", "setting": "Table 13: 10 mM GSH 2eq/10 mM Cys 2eq, 0.2 mM PIC-1, blood sample 1, sera 1:100", "result": 0}, {"measurement": "Gel card score", "setting": "Table 13: 10 mM GSH 2eq/10 mM Cys 2eq, 0.2 mM PIC-1, blood sample 2, sera 1:4", "result": 2}, {"measurement": "Gel card score", "setting": "Table 13: 10 mM GSH 2eq/10 mM Cys 2eq, 0.2 mM PIC-1, blood sample 2, sera 1:100", "result": 0}, {"measurement": "Gel card score", "setting": "Table 13: 15 mM GSH 2eq/5 mM Cys 1eq, 0.2 mM PIC-1, blood sample 1, sera 1:4", "result": 4}, {"measurement": "Gel card score", "setting": "Table 13: 15 mM GSH 2eq/5 mM Cys 1eq, 0.2 mM PIC-1, blood sample 1, sera 1:100", "result": 0}, {"measurement": "Gel card score", "setting": "Table 13: 15 mM GSH 2eq/5 mM Cys 1eq, 0.2 mM PIC-1, blood sample 2, sera 1:4", "result": 3}, {"measurement": "Gel card score", "setting": "Table 13: 15 mM GSH 2eq/5 mM Cys 1eq, 0.2 mM PIC-1, blood sample 2, sera 1:100", "result": 0}, {"measurement": "Gel card score", "setting": "Table 13: 15 mM GSH 2eq/5 mM Cys 2eq, 0.2 mM PIC-1, blood sample 1, sera 1:4", "result": 4}, {"measurement": "Gel card score", "setting": "Table 13: 15 mM GSH 2eq/5 mM Cys 2eq, 0.2 mM PIC-1, blood sample 1, sera 1:100", "result": 0}, {"measurement": "Gel card score", "setting": "Table 13: 15 mM GSH 2eq/5 mM Cys 2eq, 0.2 mM PIC-1, blood sample 2, sera 1:4", "result": 3}, {"measurement": "Gel card score", "setting": "Table 13: 15 mM GSH 2eq/5 mM Cys 2eq, 0.2 mM PIC-1, blood sample 2, sera 1:100", "result": 0}, {"measurement": "Gel card score", "setting": "Table 13: 20 mM Cys 1eq, 0.2 mM PIC-1, blood sample 1, sera 1:4", "result": 0}, {"measurement": "Gel card score", "setting": "Table 13: 20 mM Cys 1eq, 0.2 mM PIC-1, blood sample 1, sera 1:100", "result": 0}, {"measurement": "Gel card score", "setting": "Table 13: 20 mM Cys 1eq, 0.2 mM PIC-1, blood sample 2, sera 1:4", "result": 3}, {"measurement": "Gel card score", "setting": "Table 13: 20 mM Cys 1eq, 0.2 mM PIC-1, blood sample 2, sera 1:100", "result": 0}, {"measurement": "Gel card score", "setting": "Table 13: 20 mM Cys 2eq, 0.2 mM PIC-1, blood sample 1, sera 1:4", "result": 0}, {"measurement": "Gel card score", "setting": "Table 13: 20 mM Cys 2eq, 0.2 mM PIC-1, blood sample 1, sera 1:100", "result": 0}, {"measurement": "Gel card score", "setting": "Table 13: 20 mM Cys 2eq, 0.2 mM PIC-1, blood sample 2, sera 1:4", "result": 1}, {"measurement": "Gel card score", "setting": "Table 13: 20 mM Cys 2eq, 0.2 mM PIC-1, blood sample 2, sera 1:100", "result": 0}, {"measurement": "Gel card score", "setting": "Table 13: 20 mM GSH 2eq, 0.2 mM PIC-1, blood sample 1, sera 1:4", "result": 4}, {"measurement": "Gel card score", "setting": "Table 13: 20 mM GSH 2eq, 0.2 mM PIC-1, blood sample 1, sera 1:100", "result": 0}, {"measurement": "Gel card score", "setting": "Table 13: 20 mM GSH 2eq, 0.2 mM PIC-1, blood sample 2, sera 1:4", "result": 4}, {"measurement": "Gel card score", "setting": "Table 13: 20 mM GSH 2eq, 0.2 mM PIC-1, blood sample 2, sera 1:100", "result": 0}, {"measurement": "Gel card score", "setting": "Table 14: 5 mM CysGly 1 eq. base, 0.2 mM PIC-1, 1:4 dilution of serum", "result": 4}, {"measurement": "Gel card score", "setting": "Table 14: 5 mM CysGly 1 eq. base, 0.2 mM PIC-1, 1:100 dilution of serum", "result": 2}, {"measurement": "Gel card score", "setting": "Table 14: 5 mM CysGly, 0.2 mM PIC-1, 1:4 dilution of serum", "result": 4}, {"measurement": "Gel card score", "setting": "Table 14: 5 mM CysGly, 0.2 mM PIC-1, 1:100 dilution of serum", "result": 0}, {"measurement": "Gel card score", "setting": "Table 14: 10 mM CysGly, 0.2 mM PIC-1, 1:4 dilution of serum", "result": 4}, {"measurement": "Gel card score", "setting": "Table 14: 10 mM CysGly, 0.2 mM PIC-1, 1:100 dilution of serum", "result": 0}, {"measurement": "Gel card score", "setting": "Table 14: […] CysGly 1 eq. base, 0.2 mM PIC-1, 1:4 dilution of serum", "result": 4}, {"measurement": "Gel card score", "setting": "Table 14: […] CysGly 1 eq. base, 0.2 mM PIC-1, 1:100 dilution of serum", "result": 4}, {"measurement": "Gel card score", "setting": "Table 14: […] CysGly, 0.2 mM PIC-1, 1:4 dilution of serum", "result": 4}, {"measurement": "Gel card score", "setting": "Table 14: […] CysGly, 0.2 mM PIC-1, 1:100 dilution of serum", "result": 3}, {"measurement": "Gel card score", "setting": "another study, rabbit sera 1:4: 10 mM neutralized (2 eq.) glutathione, 0.2 mM PIC-1", "result": "4+"}, {"measurement": "Gel card score", "setting": "another study, rabbit sera 1:4: 15 mM neutralized (2 eq.) glutathione, 0.2 mM PIC-1", "result": "3+"}, {"measurement": "Gel card score", "setting": "another study, rabbit sera 1:4: 20 mM neutralized (2 eq.) glutathione, 0.2 mM PIC-1", "result": "1+"}, {"measurement": "Gel card score", "setting": "another study, rabbit sera 1:4: standard condition", "result": "4+"}, {"measurement": "Gel card score", "setting": "another study, rabbit sera 1:100: 10, 15, 20 mM neutralized glutathione, all samples", "result": 0}]}]}
